Assay results published in patent US20140274992A1, “CEFTOLOZANE PHARMACEUTICAL COMPOSITIONS” (Cubist Pharmaceuticals, Inc., priority 2013, published 2014).

Test: Intrinsic pH of ceftolozane in solution
Assay type: physicochemical
Conditions: solution (2%)
Method: A formulation close to physiologic pH was targeted. This necessitates an alkalizing agent due to intrinsic pH 1.92 of ceftolozane in solution (2%). The initial study of alkalizing agents included sodium hydroxide, L-arginine, tris, sodium bicarbonate, meglumine, diethanolamine, and triethanolamine. Samples containing 100 mg ceftolozane sulfate, 22.9 mg sodium chloride, 200 mg maltose, and 2 mg citric acid anhydrous were prepared and adjusted to about pH 4. The samples were lyophilized and powders stored at 70° C. for 3 days, 60° C. for 3, 6 and 9 days and at 40° C. for one month. The stored samples were then analyzed for ceftolozane content.

- intrinsic pH of ceftolozane in solution: 1.92
Compound: Cn1c(N)c(NC(=O)NCCN)c[n+]1CC1=C(C(=O)[O-])N2C(=O)[C@@H](NC(=O)/C(=N\OC(C)(C)C(=O)O)c3nsc(N)n3)[C@H]2SC1 [ceftolozane]
